Results published in US20240368133A1, “Compounds for the Treatment of Pain, in Particular, Neuropathic Pain, and/or Other Diseases or Disorders that are Associated with AT2R and/or AT2R Mediated Signaling” (Confo Therapeutics N.V., priority 2021, published 2024).
Converted amounts (≈) assume the structure as drawn. Where two headings read alike, the source gives them in different places.

Tests used:
Kinetic solubility = assay type: physicochemical; conditions: kinetic from dmso stock
Description: Starting from a 20 mM stock solution of test compound in 100% DMSO, dilutions were prepared to a theoretical concentration of 400 μM in duplicates in phosphate-buffered saline pH 7.4 (PBS) (138 mM NaCl, 2.7 mM KCl, 10 mM K-phosphate) and 100 mM citrate buffer pH 3.0 with 2% final DMSO.
The experimental compound dilutions in PBS and citrate buffer were further allowed to equilibrate at 25° C. on a thermostatic orbital shaker for two hours and then centrifuged at 14000 rpm, 5 min and filtered through HTS filter plates using a vacuum manifold. The filtrates of test compounds were diluted 2-fold with acetonitrile with 2% DMSO before measuring. In parallel, compound dilutions in 50% acetonitrile/buffer were prepared to the theoretical concentrations of 0 μM (blank), 100 μM, 200 μM and 400 μM with 2% final DMSO to generate calibration curves.
Ondansetron (Sigma Aldrich USA, cat #03639) was used as a reference to control proper assay performance. 200 μl of each sample were transferred to a 96-well plate and solubility was measured in a 200-550 nm range (in steps of 5 nm). The measurements were performed using a Spectra Max Plus reader in UV-Vis mode. Acquisition and analysis of the data were performed using SoftMax Pro v.5.4 (Molecular Devices) and Excel 2010 data analysis software. Proper absorbance wavelengths for calculations were selected for each compound manually based on absorbance maximums (absolute absorbance unit values for the minimum and maximum concentration points within 0-3 OD range). Each of the final datasets was additionally visually evaluated by the operator and goodness of fit (R2) is calculated for each calibration curve.

[1] = Liver microsomal stability, rat; assay type: in vitro ADME; conditions: male, pH 7.4, liver microsomes
Description: Mouse hepatic microsomes were isolated from pooled (50), perfused livers of male Balb/c mice. Rat hepatic microsomes were isolated from pooled (15), perfused livers of male Wistar rats. Isolation was performed according to the standard protocol (Hill, J. R. in Current Protocols in Pharmacology 7.8.1-7.8.11, Wiley Interscience, 2003). The batches of microsomes were tested for quality control using Imipramine, Propranolol and Verapamil as reference compounds.
(§1) Microsomal incubations were carried out in 96-well plates in 5 aliquots of 40 μL each (one for each time point). Liver microsomal incubation medium contained PBS (100 mM, pH 7.4), MgCl2 (3.3 mM), NADPH (3 mM), glucose-6-phosphate (5.3 mM), glucose-6-phosphate dehydrogenase (0.67 units/ml) with 0.42 mg of liver microsomal protein per ml. Control incubations were performed replacing the NADPH-cofactor system with PBS. Test compound (2 μM, final solvent concentration 1.6%) was incubated with microsomes at 37° C., shaking at 100 rpm. Incubations were performed in duplicates. Five time points over 40 minutes have been analyzed. The reactions were stopped by adding 12 volumes of 90% acetonitrile-water to incubation aliquots, followed by protein sedimentation by centrifuging at 5500 rpm for 3 minutes. […]. Supernatants were analyzed using the HPLC system coupled with tandem mass spectrometer (API3000 PE Sciex). Acquisition and analysis of the data were performed using Analyst 1.5.2 software (PE Sciex). The elimination constant (kel), half-life (t½) and intrinsic clearance (Clint) were determined in plot of […] versus time, using linear regression analysis:
Mouse hepatic microsomes were isolated from pooled, perfused livers of male CD1 mice. Rat hepatic microsomes were isolated from pooled, perfused livers of male Sprague Dawley rats. Dog hepatic microsomes were isolated from pooled, perfused livers of male Beagle dogs. The batches of microsomes were tested for quality control using Testosterone, Propranolol and Caffeine as reference compounds.
(§2) A 10 mM stock solution of compound in DMSO is diluted three-fold in DMSO. This pre-diluted compound solution is then further diluted to 2 μM in a 50 mM phosphate buffer (PBS, pH 7.4) and pre-warmed at 37° C. This compound dilution is mixed F2 with microsomal/cofactor mix at 37° C. under shaking at 300 rpm. Final reaction conditions are: 100 μL incubation volume, 1 μM of test compound (in duplicate), <0.1% DMSO, 0.5 mg/mL microsomes, 0.6 U/mL Glucose-6-phosphate-dehydrogenase (G6PDH, Roche, 10127671001), 3.3 mM MgCl2 (Sigma, M2670), 3.3 mM glucose-6-phosphate (Sigma, G-7879) and 1.3 mM NADP+ (Sigma, N-0505).
(§3) After 60 min of incubation at 300 rpm and 37° C., the reaction was stopped with 3 volumes of STOP solution (acetonitrile/MeOH 2/1 with diclofenac as internal standard). For the time point zero, 3 volumes of STOP solution were added to the compound dilution before the microsome mix was added. Six time points over 60 minutes have been analyzed. The samples of all time points were centrifuged, filtered and the supernatant analyzed by LCMS/MS (systems API4000).
(§4) The instrument responses (peak areas/IS peak area) were referenced to the zero time-point samples (considered as 100%) in order to determine the percentage of compound remaining.
(§5) Testosterone (1 μM) and Propranolol and Caffeine (1 μM) were used as reference compounds, being unstable and stable compounds respectively. If the microsomal stability values for these controls are not in the range determined by the historical data, the assay is not validated. The solubility of the compound in the final test concentration in 50 mM buffer pH 7.4 is checked by microscope to indicate whether precipitation is observed or not. If a precipitate is observed, no data of microsomal stability is generated.

[2] = Liver microsomal stability, human; assay type: in vitro ADME; conditions: pH 7.4, liver microsomes
Description: as §1, §2, §3, §4, §5

[3] = aqueous buffer, kinetic solubility, phosphate-buffered saline pH 7.4, 2% DMSO, 25° C., two hours, read-out: PBS solubility, pH 7.4
[4] = citrate buffer, 25 °C, pH 3, aqueous buffer, read-out: Citrate buffer solubility, pH 3.0

SMILES | solubility at 2 h (Kinetic solubility; [3]) [µM] | solubility at 2 h (Kinetic solubility; [4]) [µM] | microsomal CLint [1] [µL/min/mg] | microsomal CLint [2] [µL/min/mg]
CC(C)Cc1ccc(-c2nn[nH]n2)c(N2CCN(Cc3nc4ccccc4n3C)CC2)c1 [Compound A-20, 2-[[4-[5-isobutyl-2-(2H-tetrazol-5-yl)-phenyl]piperazin-1-yl]methyl]-1-meth-yl-benzimidazole] | ≥ 400 | ≥ 400 | 28 | 24
CCC1CN(c2cc(CC(C)C)cc(F)c2-c2nn[nH]n2)CCN1Cc1cccnn1 (stereo not shown) [Compound A-178, 3-[[2-ethyl-4-[3-fluoro-5-isobutyl-2-(2H-tetrazol-5-yl)phenyl]piperazin-1-yl]methyl]pyridazine] | ≥ 400 | ≥ 400 | 5 | 20
CC(C)Cc1ccc(-c2nn[nH]n2)c(N2CCN(Cc3nc4ccccc4c(=O)[nH]3)CC2)c1 [Compound A-31, 2-[[4-[5-isobutyl-2-(2H-tetrazol-5-yl)phenyl]piperazin-1-yl]methyl]-3H-quinazolin-4-one] | ≥ 400 | 40 (≈ 17.8 µg/mL) | 5 | 8
CC(C)Oc1ccc(-c2nn[nH]n2)c(N2CCN(Cc3nc4ccccc4n3C)CC2)c1 [Compound A-24, 2-[[4-[5-isopropoxy-2-(2H-tetrazol-5-yl)phenyl]piperazin-1-yl]methyl]-1-methyl-benzimidazole] | ≥ 400 | ≥ 400 | 7 | 8
CC(C)Oc1ccc(-c2nn[nH]n2)c(N2CCN(Cc3nc4ccccc4c(=O)[nH]3)CC2)c1 [Compound A-32] | 394 (≈ 176 µg/mL) | 399 (≈ 178 µg/mL) | 13 | 10
CCCCNC(=O)NS(=O)(=O)c1ccc(C(F)(F)F)cc1N1CCN(Cc2nc3ccccc3n2C)CC1 [Compound A-10, 1-butyl-3-[2-[4-[(1-methylbenzimidazol-2-yl)methyl]piperazin-1-yl]-4-(trifluoromethyl)phenyl]sulfonyl-urea] | ≥ 400 | ≥ 400 | 28 | 99
CCCCOC(=O)NS(=O)(=O)c1ccc(C(F)(F)F)cc1N1CCN(Cc2nc3ccccc3n2C)CC1 [Compound A-09, butyl N-[2-[4-[(1-methylbenzimidazol-2-yl)methyl]piperazin-1-yl]-4-(trifluoromethyl)phenyl]sulfonylcarbamate] | 318 (≈ 176 µg/mL) | ≥ 400 | 33 | 37
CC(C)Oc1ccc(-c2nn[nH]n2)c(N2CCN(Cc3nc4ccccc4s3)CC2)c1 [Compound A-51, 2-[[4-[5-isoprop-oxy-2-(2H-tetrazol-5-yl)phenyl]piper-azin-1-yl]methyl]-1,3-benzothiazole] | ≥ 400 | 4 (≈ 1.74 µg/mL) | 1 | 12

Second part, the molecule after the results:

solubility at 2 h (Kinetic solubility; [3]) [µM] | solubility at 2 h (Kinetic solubility; [4]) [µM] | microsomal CLint [1] [µL/min/mg] | microsomal CLint [2] [µL/min/mg] | SMILES
 |  | 24.1 | 18.2 | Cc1cnc(CN2CCN(c3cc(CC(C)C)cc(F)c3-c3nn[nH]n3)C[C@@H]2C)s1 [Compound A-223, 2-[[(2S)-4-[3-fluoro-5-isobutyl-2-(2H-tetrazol-5-yl)phenyl]-2-methyl-piperazin-1-yl]methyl]-5-methyl-thiazole]
 |  | < 17.3 | < 6.6 | CC(C)Cc1cc(F)c(-c2nn[nH]n2)c(N2CCN(Cc3ccccn3)[C@@H](C)C2)c1 [Compound A-217, (2S)-4-[3-fluoro-5-isobutyl-2-(2H-tetrazol-5-yl)phenyl]-2-methyl-1-(2-pyridylmethyl)piperazine]
 |  | 3 | 6 | CC(C)Cc1ccc(-c2nn[nH]n2)c(N2CCN(Cc3nccn3C)CC2)c1 [Compound A-83, 1-[5-isobutyl-2-(2H-tetrazol-5-yl)-phenyl]-4-[(1-meth-ylimidazol-2-yl)-methyl]piperazine]
 |  | 7 | 6 | CC(C)Cc1ccc(-c2nn[nH]n2)c(N2CCN(Cc3ncccn3)CC2)c1 [Compound A-88]
 |  | 4 | 15 | Cc1cc(CN2CCN(c3cc(CC(C)C)ccc3-c3nn[nH]n3)CC2)no1 [Compound A-82, 3-[[4-[5-isobutyl-2-(2H-tetrazol-5-yl)phenyl]piperazin-1-yl]methyl]-5-methyl-isoxazole]
 |  | 7 | 40 | CC(C)Cc1ccc(-c2nn[nH]n2)c(N2CCN(Cc3ccnn3C)CC2)c1 [Compound A-84, 1-[5-isobutyl-2-(2H-tetrazol-5-yl)phenyl]-4-[(1-methylpyrazol-5-yl)methyl]piperazine]
376 (≈ 154 µg/mL) | 356 (≈ 146 µg/mL) | 12 | 4 | CC(C)Cc1cc(F)c(-c2nn[nH]n2)c(N2CCN(Cc3cccnn3)C(C)C2)c1 (stereo not shown) [Compound A-173, 3-[[4-[3-fluoro-5-isobutyl-2-(2H-tetrazol-5-yl)phenyl]-2-methyl-piperazin-1-yl]methyl]pyridazine]
≥ 400 | 388 (≈ 165 µg/mL) | 5 | 12 | CCC1CN(Cc2cccnn2)CCN1c1cc(CC(C)C)cc(F)c1-c1nn[nH]n1 (stereo not shown) [Compound A-181, 3-[[3-ethyl-4-[3-fluoro-5-isobutyl-2-(2H-tetrazol-5-yl)phenyl]piperazin-1-yl]methyl]pyridazine]
≥ 400 | ≥ 400 | 4 | 7 | CC(C)Cc1ccc(-c2nn[nH]n2)c(N2CCN(Cc3cccnn3)CC2)c1 [Compound A-90, 3-[[4-[5-isobutyl-2-(2H-tetrazol-5-yl)phenyl]piperazin-1-yl]methyl]pyridazine]
385 (≈ 158 µg/mL) | 356 (≈ 146 µg/mL) | < 17.3 | < 6.6 | CC(C)Cc1cc(F)c(-c2nn[nH]n2)c(N2CCN(Cc3cccnn3)[C@@H](C)C2)c1 [Compound A-174, 3-[[(2S)-4-[3-fluoro-5-isobutyl-2-(2H-tetrazol-5-yl)phenyl]-2-methyl-piperazin-1-yl]methyl]pyridazine]
383 (≈ 163 µg/mL) | 377 (≈ 160 µg/mL) | 7 | 7 | CC(C)Cc1cc(F)c(-c2nn[nH]n2)c(N2CC(C)N(Cc3cccnn3)CC2C)c1 (stereo not shown) [Compound A-183, 3-[[4-[3-fluoro-5-isobutyl-2-(2H-tetrazol-5-yl)phen-yl]-2,5-dimethyl-piperazin-1-yl]-methyl]pyridazine]
